Measurements as given in patent publication US9902702B2, “Spirocycloheptanes as inhibitors of rock” (BRISTOL-MYERS SQUIBB COMPANY, priority 2014, dated 2018).
Counter-ions that a name gives are not always drawn.

These compounds were tested against ROCK2 (Homo sapiens, UniProt O75116) (assay: ROCK assay: phosphorylation of FITC peptide substrate, LABCHIP 3000 mobility shift). Conditions: 5 μM ATP, 1.5 μM peptide substrate; read-out: ROCK2 Activity (ROCK IC50 range).
Assay type: biochemical
Procedure, shortened: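 IC50 values come from curve-fitting percent kinase inhibition across a compound dilution series. The reaction is started with Rho kinase variant in HEPES pH 7.5 buffer with MgCl2, Brij-35 and DTT, with 5 μM ATP, 1.5 μM FITC-labelled peptide and under 2% DMSO. After EDTA quench, product and substrate are separated by microfluidic mobility shift.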

ROCK2, sequence (O75116 whole entry, species assumed): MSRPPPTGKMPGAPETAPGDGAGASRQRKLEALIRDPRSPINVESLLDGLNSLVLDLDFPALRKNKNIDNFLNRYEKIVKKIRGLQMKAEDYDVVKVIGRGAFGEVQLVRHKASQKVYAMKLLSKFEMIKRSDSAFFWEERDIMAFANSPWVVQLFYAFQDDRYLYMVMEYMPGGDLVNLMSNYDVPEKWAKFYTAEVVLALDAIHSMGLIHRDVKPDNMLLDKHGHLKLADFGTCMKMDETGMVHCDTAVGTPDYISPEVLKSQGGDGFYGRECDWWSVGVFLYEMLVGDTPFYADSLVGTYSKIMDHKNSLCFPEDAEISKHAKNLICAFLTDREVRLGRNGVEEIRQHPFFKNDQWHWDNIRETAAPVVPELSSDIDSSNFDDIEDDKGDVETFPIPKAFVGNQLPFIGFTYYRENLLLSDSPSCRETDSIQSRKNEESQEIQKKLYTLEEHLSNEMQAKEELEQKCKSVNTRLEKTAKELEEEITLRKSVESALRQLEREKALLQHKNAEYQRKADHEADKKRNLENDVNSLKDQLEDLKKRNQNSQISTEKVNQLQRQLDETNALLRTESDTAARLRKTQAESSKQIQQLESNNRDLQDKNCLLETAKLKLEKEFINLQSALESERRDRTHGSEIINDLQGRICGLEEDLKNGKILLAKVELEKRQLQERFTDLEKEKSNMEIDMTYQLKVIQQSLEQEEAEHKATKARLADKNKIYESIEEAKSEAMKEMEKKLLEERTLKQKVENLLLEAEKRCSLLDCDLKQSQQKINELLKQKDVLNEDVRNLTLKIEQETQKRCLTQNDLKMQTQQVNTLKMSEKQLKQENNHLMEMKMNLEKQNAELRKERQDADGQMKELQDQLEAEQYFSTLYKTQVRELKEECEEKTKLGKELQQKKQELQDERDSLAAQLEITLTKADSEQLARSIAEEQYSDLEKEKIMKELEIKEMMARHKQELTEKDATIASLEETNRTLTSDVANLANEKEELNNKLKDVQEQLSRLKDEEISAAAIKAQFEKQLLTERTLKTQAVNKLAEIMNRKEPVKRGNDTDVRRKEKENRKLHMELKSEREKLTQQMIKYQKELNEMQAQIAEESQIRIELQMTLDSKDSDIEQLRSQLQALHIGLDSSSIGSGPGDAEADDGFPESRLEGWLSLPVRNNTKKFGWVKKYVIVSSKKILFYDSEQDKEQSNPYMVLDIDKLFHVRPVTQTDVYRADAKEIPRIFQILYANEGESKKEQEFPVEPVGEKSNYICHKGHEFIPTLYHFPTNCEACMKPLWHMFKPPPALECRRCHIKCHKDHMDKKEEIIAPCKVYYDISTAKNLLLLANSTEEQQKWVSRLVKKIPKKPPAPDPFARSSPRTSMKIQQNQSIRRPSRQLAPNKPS

Row | Compound | IC50 [nM]
1 | [H][C@]1(c2n[nH]c(=O)c3ccccc32)C[C@]2(C[C@@H](NC(=O)c3ccc(-c4cnn(C)c4)c(OC)c3)C2)C1 (stereo partly drawn) [Example 422, 3-methoxy-4-(1-methyl-1H-pyrazol-4-yl)-N-((aR)-6-(4-oxo-3,4-dihydrophthalazin-1-yl)spiro[3.3]heptan-2-yl)benzamide] | 2.01 to 5
2 | [H][C@]1(c2n[nH]c(=O)c3ccccc32)C[C@]2(C[C@@H](NC(=O)c3ccc(-c4cnn(C)c4)c(F)c3)C2)C1 (stereo partly drawn) [Example 423, 3-fluoro-4-(1-methyl-1H-pyrazol-4-yl)-N-((aR)-6-(4-oxo-3,4-dihydrophthalazin-1-yl)spiro[3.3]heptan-2-yl)benzamide] | 2.01 to 5
3 | [H][C@]1(c2n[nH]c(=O)c3ccccc32)C[C@]2(C[C@@H](NC(=O)c3ccc(-c4cnn(C)c4)nc3)C2)C1 (stereo partly drawn) [Example 425, 6-(1-methyl-1H-pyrazol-4-yl)-N-((aR)-6-(4-oxo-3,4-dihydrophthalazin-1-yl)spiro[3.3]heptan-2-yl)nicotinamide] | 5.1 to 15
4 | [H][C@]1(c2n[nH]c(=O)c3ccccc32)C[C@]2(C[C@@H](NC(=O)c3cnc4cc(C(C)=O)ccn34)C2)C1 (stereo partly drawn) [Example 426, 7-acetyl-N-((aR)-6-(4-oxo-3,4-dihydrophthalazin-1-yl)spiro[3.3]heptan-2-yl)imidazo[1,2-a]pyridine-3-carboxamide] | 0.2 to 2
5 | [2H]C([2H])([2H])n1cc(-c2ccc(C(=O)N[C@H]3CC4(C3)C[C@H](c3n[nH]c(=O)c5ccccc53)C4)cc2F)cn1 (stereo partly drawn) [Example 427, 3-fluoro-4-(1-d3-methyl-1H-pyrazol-4-yl)-N-((aR)-6-(4-oxo-3,4-dihydrophthalazin-1-yl)spiro[3.3]heptan-2-yl)benzamide] | 5.1 to 15
6 | [H][C@]1(c2n[nH]c(=O)c3ccccc32)C[C@]2(C[C@@H](NC(=O)c3ccc(-c4cnn(C(F)F)c4)c(F)c3)C2)C1 (stereo partly drawn) [Example 428, 4-(1-(difluoromethyl)-1H-pyrazol-4-yl)-3-fluoro-N-((aR)-6-(4-oxo-3,4-dihydrophthalazin-1-yl)spiro[3.3]heptan-2-yl)benzamide] | 5.1 to 15
7 | [H][C@]1(c2n[nH]c(=O)c3ccccc32)C[C@]2(C[C@@H](NC(=O)c3cnc4cc(C(C)(C)O)ccn34)C2)C1 (stereo partly drawn) [Example 429, 7-(2-hydroxypropan-2-yl)-N-((aR)-6-(4-oxo-3,4-dihydrophthalazin-1-yl)spiro[3.3]heptan-2-yl)imidazo[1,2-a]pyridine-3-carboxamide] | 15.1 to 100
8 | [H][C@]1(c2n[nH]c(=O)c3ccccc32)C[C@]2(C[C@@H](NC(=O)c3cnc4cc(C(C)O)ccn34)C2)C1 (stereo partly drawn) [Example 430, 7-(1-hydroxyethyl)-N-((aR)-6-(4-oxo-3,4-dihydrophthalazin-1-yl)spiro[3.3]heptan-2-yl)imidazo[1,2-a]pyridine-3-carboxamide] | 5.1 to 15
9 | [H][C@]1(c2n[nH]c(=O)c3ccccc32)C[C@]2(C[C@@H](NC(=O)c3cnc4cc(OC5CCS(=O)(=O)CC5)ccn34)C2)C1 (stereo partly drawn) [Example 431, 7-((1,1-dioxidotetrahydro-2H-thiopyran-4-yl)oxy)-N-((aR)-6-(4-oxo-3,4-dihydrophthalazin-1-yl)spiro[3.3]heptan-2-yl)imidazo[1,2-a]pyridine-3-carboxamide] | 0.2 to 2
10 | [H][C@]1(c2n[nH]c(=O)c3ccccc32)C[C@]2(C[C@@H](NC(=O)c3cnc4cc(OCCC(F)(F)F)ccn34)C2)C1 (stereo partly drawn) [Example 432, N-((aR)-6-(4-oxo-3,4-dihydrophthalazin-1-yl)spiro[3.3]heptan-2-yl)-7-(3,3,3-trifluoro-propoxy)imidazo[1,2-a]pyridine-3-carboxamide] | 2.01 to 5
11 | [H][C@]1(c2n[nH]c(=O)c3ccccc32)C[C@]2(C[C@@H](NC(=O)c3cnc4cc(OC(CF)CF)ccn34)C2)C1 (stereo partly drawn) [Example 433, 7-((1,3-difluoropropan-2-yl)oxy)-N-((aR)-6-(4-oxo-3,4-dihydrophthalazin-1-yl)spiro[3.3]heptan-2-yl)imidazo[1,2-a]pyridine-3-carboxamide] | 2.01 to 5
12 | [H][C@]1(c2n[nH]c(=O)c3ccccc32)C[C@]2(C[C@@H](NC(=O)c3cnc4cc(Oc5ccccn5)ccn34)C2)C1 (stereo partly drawn) [Example 434, N-((aR)-6-(4-oxo-3,4-dihydrophthalazin-1-yl)spiro[3.3]heptan-2-yl)-7-(pyridin-2-yloxy)imidazo[1,2-a]pyridine-3-carboxamidc] | 0.2 to 2
13 | [H][C@]1(c2n[nH]c(=O)c3ccccc32)C[C@]2(C[C@@H](NC(=O)c3nc(C(C)C)n4ccccc34)C2)C1 (stereo partly drawn) [Example 435, 3-isopropyl-N-((aR)-6-(4-oxo-3,4-dihydrophthalazin-1-yl)spiro[3.3]heptan-2-yl)imidazo[1,5-a]pyridine-1-carboxamide] | 5.1 to 15
14 | [H][C@]1(c2n[nH]c(=O)c3ccccc32)C[C@]2(C[C@@H](NC(=O)c3cnc4cc(OCC(F)F)ccn34)C2)C1 (stereo partly drawn) [Example 436, 7-(2,2-difluoroethoxy)-N-((aR)-6-(4-oxo-3,4-dihydrophthalazin-1-yl)spiro[3.3]heptan-2-yl)imidazo[1,2-a]pyridine-3-carboxamide] | 0.2 to 2
15 | [H][C@]1(c2n[nH]c(=O)c3ccccc32)C[C@]2(C[C@@H](NC(=O)c3cnc4cc(OC(C)C)ccn34)C2)C1 (stereo partly drawn) [Example 437, 7-isopropoxy-N-((aR)-6-(4-oxo-3,4-dihydrophthalazin-1-yl)spiro[3.3]heptan-2-yl)imidazo[1,2-a]pyridine-3-carboxamide] | 2.01 to 5
16 | [H][C@]1(c2n[nH]c(=O)c3ccccc32)C[C@]2(C[C@@H](NC(=O)c3cnn4cccc(N5CCOCC5)c34)C2)C1 (stereo partly drawn) [Example 438, 4-morpholino-N-((aR)-6-(4-oxo-3,4-dihydrophthalazin-1-yl)spiro[3.3]heptan-2-yl)pyrazolo[1,5-a]pyridine-3-carboxamide] | 100 to 2100
17 | CCn1cc(-c2ccn3c(C(=O)N[C@H]4CC5(C4)C[C@H](c4n[nH]c(=O)c6ccccc64)C5)cnc3c2)cn1 (stereo partly drawn) [Example 439, 7-(1-ethyl-1H-pyrazol-4-yl)-N-((aR)-6-(4-oxo-3,4-dihydrophthalazin-1-yl)spiro[3.3]heptan-2-yl)imidazo[1,2-a]pyridine-3-carboxamide, TFA salt] | 0.2 to 2
18 | [H][C@]1(c2n[nH]c(=O)c3ccccc32)C[C@]2(C[C@@H](NC(=O)c3cnc4cc(-c5cnn(C)c5)ccn34)C2)C1 (stereo partly drawn) [Example 440, 7-(1-methyl-1H-pyrazol-4-yl)-N-((aR)-6-(4-oxo-3,4-dihydrophthalazin-1-yl)spiro[3.3]heptan-2-yl)imidazo[1,2-a]pyridine-3-carboxamide] | 0.2 to 2
19 | [H][C@]1(c2n[nH]c(=O)c3ccccc32)C[C@]2(C[C@@H](NC(=O)c3cnc4cc(-c5cnn(C(C)C)c5)ccn34)C2)C1 (stereo partly drawn) [Example 441, 7-(1-isopropyl-1H-pyrazol-4-yl)-N-((aR)-6-(4-oxo-3,4-dihydrophthalazin-1-yl)spiro[3.3]heptan-2-yl)imidazo[1,2-a]pyridine-3-carboxamide] | 0.2 to 2
20 | [2H]C([2H])([2H])n1cc(-c2ccn3c(C(=O)N[C@H]4CC5(C4)C[C@H](c4n[nH]c(=O)c6ccccc64)C5)cnc3c2)cn1 (stereo partly drawn) [Example 442, 7-(1-(methyl-d3)-1H-pyrazol-4-yl)-N-((aR)-6-(4-oxo-3,4-dihydrophthalazin-1-yl)spiro[3.3]heptan-2-yl)imidazo[1,2-a]pyridine-3-carboxamide] | 0.2 to 2
21 | [H][C@]1(c2n[nH]c(=O)c3ccccc32)C[C@]2(C[C@@H](NC(=O)c3cnc4cc(-c5cnn(C6CCOCC6)c5)ccn34)C2)C1 (stereo partly drawn) [Example 443] | 0.2 to 2
